Consider 15 compounds from patent publication US20180194762A1 (Pharmacyclics LLC, priority 2017, published 2018).

Holding throughout (type): biochemical
One assay has as its target T1, Btk (Homo sapiens, UniProt Q06187).
T1 construct: purified from insect cells as a full-length construct containing a N-terminal 6X-His tag; His6 (N); made in house; host or cells: insect cells (Method C)
The assay is described as follows: Btk in vitro inhibitory activity (one of Method A TR-FRET, Method B electrophoretic mobility shift, Method C radiometric filter binding). The following applies: wild-type Btk; read-out: Btk-WT IC50. The method in brief: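 Method A: TR-FRET with 0.5 nM Btk at [ATP]=Km, EDTA-quenched, 665/615 nm ratio; Ki(app) converted to IC50. Method B: 1 nM full-length His6 human BTK, 1 μM FAM peptide, pH 7.5, mobility-shift product/sum ratio, 12-point 4-parameter fit. Method C: radiometric filter binding, 8 nM His-tagged BTK, 0.2 mg/mL poly-Glu-Tyr.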
(Mobility shift assays separate free from complexed probe on a gel.)

The target in another assay is T2, TEC (Homo sapiens, UniProt P42680).
T2 sequence (P42680 1-631): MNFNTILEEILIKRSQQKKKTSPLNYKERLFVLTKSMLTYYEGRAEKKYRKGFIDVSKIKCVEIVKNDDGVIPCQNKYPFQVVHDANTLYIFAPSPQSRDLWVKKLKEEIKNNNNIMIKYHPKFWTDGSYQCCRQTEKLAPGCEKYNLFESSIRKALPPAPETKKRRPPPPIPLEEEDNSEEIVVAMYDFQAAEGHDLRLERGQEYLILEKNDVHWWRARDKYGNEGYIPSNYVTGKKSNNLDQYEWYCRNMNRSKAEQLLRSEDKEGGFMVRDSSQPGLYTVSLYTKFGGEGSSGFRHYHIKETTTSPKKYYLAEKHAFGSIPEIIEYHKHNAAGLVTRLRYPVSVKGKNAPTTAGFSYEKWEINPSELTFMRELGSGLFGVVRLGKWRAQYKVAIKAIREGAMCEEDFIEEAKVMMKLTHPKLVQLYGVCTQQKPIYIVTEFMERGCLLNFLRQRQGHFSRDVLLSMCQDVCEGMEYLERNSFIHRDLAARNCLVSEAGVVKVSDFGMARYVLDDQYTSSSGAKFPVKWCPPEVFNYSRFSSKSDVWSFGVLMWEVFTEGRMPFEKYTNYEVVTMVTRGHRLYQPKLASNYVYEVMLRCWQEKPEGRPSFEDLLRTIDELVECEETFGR
The assay is described as follows: Inhibition of a panel of kinases (in vitro HotSpot kinase assay, 33P-ATP, 1 μM ATP). As to conditions: for IC50: HotSpot kinase assay, 1 μM ATP; for TEC/Btk: ratio of TEC IC50 to Btk IC50 (selectivity). The method in brief: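 Purified kinase enzymes were incubated with an appropriate substrate and 33P-labelled ATP at 1 μM ATP. Inhibition was measured radiometrically from incorporation of the 33P label.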

For a further assay, the target named is T3, panel of kinases (Homo sapiens, UniProt P51813).
T3 sequence (P51813 1-675): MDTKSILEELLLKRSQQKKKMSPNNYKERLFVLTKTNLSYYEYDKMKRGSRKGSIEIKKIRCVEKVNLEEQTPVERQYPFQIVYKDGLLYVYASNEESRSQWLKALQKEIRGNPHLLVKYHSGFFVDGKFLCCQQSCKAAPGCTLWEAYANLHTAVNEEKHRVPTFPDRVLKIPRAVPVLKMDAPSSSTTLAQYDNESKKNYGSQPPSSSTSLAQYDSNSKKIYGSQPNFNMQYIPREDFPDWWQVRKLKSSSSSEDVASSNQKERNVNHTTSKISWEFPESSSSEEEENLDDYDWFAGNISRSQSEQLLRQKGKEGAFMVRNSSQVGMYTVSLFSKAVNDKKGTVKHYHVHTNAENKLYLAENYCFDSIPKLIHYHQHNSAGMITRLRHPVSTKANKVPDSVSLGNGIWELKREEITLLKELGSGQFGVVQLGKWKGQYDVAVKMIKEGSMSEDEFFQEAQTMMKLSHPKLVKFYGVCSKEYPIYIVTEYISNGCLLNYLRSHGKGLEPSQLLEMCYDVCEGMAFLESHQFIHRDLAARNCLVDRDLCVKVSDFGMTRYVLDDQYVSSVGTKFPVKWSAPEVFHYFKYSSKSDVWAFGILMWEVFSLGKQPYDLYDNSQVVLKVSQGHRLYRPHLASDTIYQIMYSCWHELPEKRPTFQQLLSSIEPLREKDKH
The assay is described as follows: Inhibition of a panel of kinases (in vitro HotSpot kinase assay, 33P-ATP, 1 μM ATP), other kinases. The following applies: BMX wild-type, read-out: BMX-WT IC50. The procedure: Example 63: Inhibition of a Panel of Kinases The degree of inhibition of a panel of kinases is determined using the in vitro HotSpot kinase assay (purified enzymes, ^33P-ATP, an appropriate substrate and 1 μM ATP).

T1 sequence (Q06187 whole entry): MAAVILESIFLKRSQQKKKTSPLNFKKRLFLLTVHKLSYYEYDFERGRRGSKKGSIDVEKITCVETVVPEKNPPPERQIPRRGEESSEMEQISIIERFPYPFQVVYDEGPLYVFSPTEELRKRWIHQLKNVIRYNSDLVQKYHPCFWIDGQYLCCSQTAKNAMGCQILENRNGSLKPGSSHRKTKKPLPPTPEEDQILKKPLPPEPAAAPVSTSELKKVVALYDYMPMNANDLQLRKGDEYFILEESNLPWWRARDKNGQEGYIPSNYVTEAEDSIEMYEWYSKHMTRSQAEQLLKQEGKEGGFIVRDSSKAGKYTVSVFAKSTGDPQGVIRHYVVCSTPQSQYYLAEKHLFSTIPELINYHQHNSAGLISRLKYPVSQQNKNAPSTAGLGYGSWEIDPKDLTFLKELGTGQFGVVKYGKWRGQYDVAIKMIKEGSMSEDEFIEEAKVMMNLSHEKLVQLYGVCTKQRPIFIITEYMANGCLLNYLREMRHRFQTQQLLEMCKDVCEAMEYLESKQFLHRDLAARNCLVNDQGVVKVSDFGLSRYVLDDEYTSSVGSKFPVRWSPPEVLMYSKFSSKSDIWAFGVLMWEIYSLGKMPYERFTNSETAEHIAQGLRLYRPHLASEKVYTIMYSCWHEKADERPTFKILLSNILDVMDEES

For `C=CC(=O)N1CC[C@@H](Nc2n[nH]c3nccc(-c4cccc(NC(=O)c5ccc(C(C)(C)C)cc5)c4C)c23)C1` [Compound 9, 4-tert-butyl-N-[2-methyl-3-(3-{[(3R)-1-(prop-2-enoyl)pyrrolidin-3-yl]amino}-1H-pyrazolo[3,4-b]pyridin-4-yl)phenyl]benzamide], the 50% inhibitory concentration (IC50) (usually the concentration at which inhibition is half-maximal) on Btk was determined as 3.62 nM; on TEC, 2.46 µM; on panel of kinases it was 1.91 µM. Besides, the TEC/Btk on TEC is reported as 680.

As for `CC#CC(=O)N1CC[C@@H](Nc2n[nH]c3nccc(-c4cccc(NC(=O)c5ccc(C(C)(C)C)cc5)c4C)c23)C1` [Compound 10, N-[3-(3-{[(3R)-1-(but-2-ynoyl)pyrrolidin-3-yl]amino}-1H-pyrazolo[3,4-b]pyridin-4-yl)-2-methylphenyl]-4-tert-butylbenzamide], the values for the IC50 at Btk, on TEC and at panel of kinases were 13.1 nM, 8.35 µM and greater than 10 µM, respectively. Moreover, at TEC, the TEC/Btk was 637.

As to `C=CC(=O)N1CC[C@@H](Nc2n[nH]c3nccc(-c4cccc(-n5ccc6cc(C7CC7)cc(F)c6c5=O)c4COC(C)=O)c23)C1` [Compound 16, [2-(6-cyclopropyl-8-fluoro-1-oxo-1,2-dihydroisoquinolin-2-yl)-6-(3-{[(3R)-1-(prop-2-enoyl)pyrrolidin-3-yl]amino}-1H-pyrazolo[3,4-b]pyridin-4-yl)phenyl]methyl acetate], the IC50 is greater than 10000 nM on Btk, 3.99 µM against TEC and 4.05 µM at panel of kinases.

As for `O=c1c2c(F)cc(C3CC3)cc2ccn1-c1cccc(-c2ccnc3[nH]nc(N[C@@H]4CCNC4)c23)c1CO` [Compound 17, (R)-6-cyclopropyl-8-fluoro-2-(2-(hydroxymethyl)-3-(3-(pyrrolidin-3-ylamino)-1H-pyrazolo[3,4-b]pyridin-4-yl)phenyl)isoquinolin-1 (2H)-one], the IC50 worked out at 312 nM on Btk, 5.92 µM against TEC and 6.41 µM on panel of kinases. At TEC, the TEC/Btk stood at 19.

For the compound `C=CC(=O)N1CC[C@@H](Nc2n[nH]c3nccc(-c4cccc(-n5ccc6cc(C7CC7)cc(F)c6c5=O)c4CO)c23)C1` [Compound 18, 6-cyclopropyl-8-fluoro-2-[2-(hydroxymethyl)-3-(3-{[(3R)-1-(prop-2-enoyl)pyrrolidin-3-yl]amino}-1H-pyrazolo[3,4-b]pyridin-4-yl)phenyl]-1,2-dihydroisoquinolin-1-one], the values for the IC50 at Btk, at TEC and at panel of kinases were 1.69 nM, 0.04 µM and 0.073 µM, respectively. For the same compound, the TEC/Btk on TEC was 23.

For `CC(C)(C)CCC(=O)NCc1ccc(-c2ccnc3[nH]nc(N[C@H]4CC[C@H](O)CC4)c23)cc1F` [Compound 19, N-{[2-fluoro-4-(3-{[(1r,4r)-4-hydroxycyclohexyl]amino}-1H-pyrazolo[3,4-b]pyridin-4-yl)phenyl]methyl}-4,4-dimethylpentanamide], the IC50 on Btk was greater than 10000 nM; against TEC, greater than 10 µM; at panel of kinases, 7.46 µM.

For `CCn1cc(C(=O)NCc2ccc(-c3ccnc4[nH]nc(N[C@H]5CC[C@H](O)CC5)c34)cc2F)cn1` [Compound 20, 1-ethyl-N-{[2-fluoro-4-(3-{[(1r,4r)-4-hydroxycyclohexyl]amino}-1H-pyrazolo[3,4-b]pyridin-4-yl)phenyl]methyl}-1H-pyrazole-4-carboxamide], the IC50 is greater than 10000 nM at Btk, greater than 10 µM at TEC and 5.28 µM at panel of kinases.

As to `CC(C)(C)c1nc(C(=O)NCc2ccc(-c3ccnc4[nH]nc(N[C@H]5CC[C@H](O)CC5)c34)cc2F)no1` [Compound 21, 5-tert-butyl-N-{[2-fluoro-4-(3-{[(1r,4r)-4-hydroxycyclohexyl]amino}-1H-pyrazolo[3,4-b]pyridin-4-yl)phenyl]methyl}-1,2,4-oxadiazole-3-carboxamide], the IC50 amounted to 53.4 nM on Btk, 3.17 µM against TEC and 4.37 µM at panel of kinases. Further, at TEC, the TEC/Btk worked out at 59.

For `CC(C)(C)c1ccc(C(=O)NC2(c3ccc(-c4ccnc5[nH]nc(N[C@H]6CC[C@H](O)CC6)c45)cc3)CC2)cc1` [Compound 22, 4-tert-butyl-N-{1-[4-(3-{[(1r,4r)-4-hydroxycyclohexyl]amino}-1H-pyrazolo[3,4-b]pyridin-4-yl)phenyl]cyclopropyl}benzamide], the figures for the IC50 at Btk, on TEC and on panel of kinases were greater than 10000 nM, greater than 10 µM and 6.47 µM, respectively.

Take `CC(C)(C)c1ccc(C(=O)NCc2ccc(-c3ccnc4[nH]nc(N[C@H]5CC[C@H](O)CC5)c34)cc2)cc1` [Compound 23, 4-tert-butyl-N-{[4-(3-{[(1r,4r)-4-hydroxycyclohexyl]amino}-1H-pyrazolo[3,4-b]pyridin-4-yl)phenyl]methyl}benzamide]: the half-maximal inhibitory concentration (IC50) on Btk was greater than 10000 nM; against TEC, greater than 10 µM; on panel of kinases, greater than 10 µM.

As to `CC#CC(=O)N1CC[C@@H](Nc2n[nH]c3nccc(-c4ccc(C5(NC(=O)c6noc(C(C)(C)C)n6)CC5)cc4)c23)C1` [Compound 28, (R)—N-(1-(4-(3-((1-(but-2-ynoyl)pyrrolidin-3-yl)amino)-1H-pyrazolo[3,4-b]pyridin-4-yl)phenyl)cyclopropyl)-5-(tert-butyl)-1,2,4-oxadiazole-3-carboxamide], the IC50 is 0.575 nM at Btk, 0.2 µM against TEC and 0.071 µM on panel of kinases. Also, the TEC/Btk at TEC is 347.

For `CN(C)C/C=C/C(=O)N1CC[C@@H](Nc2n[nH]c3nccc(-c4ccc(C5(NC(=O)c6noc(C(C)(C)C)n6)CC5)cc4)c23)C1` [Compound 29, (R,E)-5-(tert-butyl)-N-(1-(4-(3-((1-(4-(dimethylamino)but-2-enoyl)pyrrolidin-3-yl)amino)-1H-pyrazolo[3,4-b]pyridin-4-yl)phenyl)cyclopropyl)-1,2,4-oxadiazole-3-carboxamide], the half-maximal inhibitory concentration (IC50) on Btk turned out to be 11 nM; on TEC, 0.964 µM; on panel of kinases, 0.595 µM. Also, the TEC/Btk at TEC is on record as 88.

In the case of `CC1(C(=O)N2CC[C@@H](Nc3n[nH]c4nccc(-c5ccc(C6(NC(=O)c7noc(C(C)(C)C)n7)CC6)cc5)c34)C2)COC1` [Compound 30, (R)-5-(tert-butyl)-N-(1-(4-(3-((1-(3-methyloxetane-3-carbonyl)pyrrolidin-3-yl)amino)-1H-pyrazolo[3,4-b]pyridin-4-yl)phenyl)cyclopropyl)-1,2,4-oxadiazole-3-carboxamide], the IC50 at Btk turned out to be 254 nM; on panel of kinases, 6.75 µM. The TEC/Btk on TEC is on record as 39.

`O=C(NCc1ccc(-c2ccnc3[nH]nc(N[C@@H]4CCNC4)c23)cc1F)c1ccccc1` [Compound 31, (R)—N-(2-fluoro-4-(3-(pyrrolidin-3-ylamino)-1H-pyrazolo[3,4-b]pyridin-4-yl)benzyl)benzamide]: the IC50 on Btk is greater than 10000 nM; at TEC it was 6.41 µM; at panel of kinases, 1.71 µM.

For the compound `Cc1ccc(C(=O)NCc2ccc(-c3ccnc4[nH]nc(N[C@@H]5CCNC5)c34)cc2F)cc1` [Compound 32, (R)—N-(2-fluoro-4-(3-(pyrrolidin-3-ylamino)-1H-pyrazolo[3,4-b]pyridin-4-yl)benzyl)-4-methylbenzamide], the figures for the IC50 at Btk, on TEC and on panel of kinases were 328 nM, 5.44 µM and 1.41 µM, respectively. In addition, the TEC/Btk at TEC stood at 17.
